Data reported in ChEMBL document CHEMBL3885861, “Open TG-GATES”.

Species: Rattus norvegicus
Assay: Open TG-GATES - Regimen: Single
Type: toxicity, organism-based, Sprague-Dawley
Design: regimen Single, gender Male, age 6 weeks
Details: in vivo, po, 0 mg/kg, route gavage, dose level Control; for APTT / Bas / Eos / Fbg / Hb / Ht / Lym / MCH / MCHC / MCV / Mono / Neu / PT / Plat / RBC / Ret / WBC: tissue Blood; for KIDNEY_L / KIDNEY_R / KIDNEY_TOTAL: tissue Kidney; for LIVER: tissue Liver; for A/G / ALP / ALT / AST / BUN / CRE / Ca / Cl / DBIL / GLC / IP / K / LDH / Na / PL / RALB / TBIL / TC / TG / TP / gamma-GTP: tissue Plasma

CC(=O)Oc1cc(C(C)C)c(OCCN(C)C)cc1C [MOXISYLYTE]
TERMINAL_BW (3 h): 216.6 g | APTT (3 h): 21.3 s | Bas (3 h): 0% | Eos (3 h): 1% | Fbg (3 h): 307.8 mg/dL | Hb (3 h): 13 g/dL | Ht (3 h): 37.8% | Lym (3 h): 76.6% | MCH (3 h): 21.2 pg | MCHC (3 h): 34.4% | MCV (3 h): 61.6 fL | Mono (3 h): 2.4% | Neu (3 h): 19.2% | PT (3 h): 16.1 s | Plat (3 h): 118.3 x10_4/uL | RBC (3 h): 614.4 x10_4/ul | Ret (3 h): 8.8% | WBC (3 h): 111.5 x10_2/uL | KIDNEY_L (3 h): 0.9 g | KIDNEY_R (3 h): 0.9 g | KIDNEY_TOTAL (3 h): 1.9 g | LIVER (3 h): 9.9 g | A/G (3 h): 1.3 | ALP (3 h): 1431.6 IU/L | ALT (3 h): 41 IU/L | AST (3 h): 73.6 IU/L | BUN (3 h): 14.6 mg/dL | CRE (3 h): 0.2 mg/dL | Ca (3 h): 10.8 mg/dL | Cl (3 h): 106 meq/L | DBIL (3 h): 0.004 mg/dL | GLC (3 h): 186.8 mg/dL | IP (3 h): 7.7 mg/dL | K (3 h): 4.3 meq/L | LDH (3 h): 263.8 IU/L | Na (3 h): 141.6 meq/L | PL (3 h): 137.4 mg/dL | RALB (3 h): 3 g/dL | TBIL (3 h): 0.02 mg/dL | TC (3 h): 79.8 mg/dL | TG (3 h): 57 mg/dL | TP (3 h): 5.3 g/dL | gamma-GTP (3 h): 1 IU/L | TERMINAL_BW (6 h): 204.4 g | APTT (6 h): 20.5 s | Bas (6 h): 0% | Eos (6 h): 1% | Fbg (6 h): 338.6 mg/dL | Hb (6 h): 13.7 g/dL | Ht (6 h): 39.5% | Lym (6 h): 80.2% | MCH (6 h): 21.4 pg | MCHC (6 h): 34.6% | MCV (6 h): 61.9 fL | Mono (6 h): 1.8% | Neu (6 h): 16.6% | PT (6 h): 16.4 s | Plat (6 h): 129.2 x10_4/uL | RBC (6 h): 638.2 x10_4/ul | Ret (6 h): 8.1% | WBC (6 h): 99.5 x10_2/uL | KIDNEY_L (6 h): 0.9 g | KIDNEY_R (6 h): 1 g | KIDNEY_TOTAL (6 h): 1.9 g | LIVER (6 h): 8.8 g | A/G (6 h): 1.3 | ALP (6 h): 1524.2 IU/L | ALT (6 h): 40.2 IU/L | AST (6 h): 76.4 IU/L | BUN (6 h): 10.8 mg/dL | CRE (6 h): 0.1 mg/dL | Ca (6 h): 10.6 mg/dL | Cl (6 h): 106.6 meq/L | DBIL (6 h): 0.024 mg/dL | GLC (6 h): 183.4 mg/dL | IP (6 h): 8.9 mg/dL | K (6 h): 4.4 meq/L | LDH (6 h): 273 IU/L | Na (6 h): 141.4 meq/L | PL (6 h): 125.4 mg/dL | RALB (6 h): 3.1 g/dL | TBIL (6 h): 0.016 mg/dL | TC (6 h): 71.4 mg/dL | TG (6 h): 47.8 mg/dL | TP (6 h): 5.4 g/dL | gamma-GTP (6 h): 1.2 IU/L | TERMINAL_BW (9 h): 211.6 g | APTT (9 h): 20.8 s | Bas (9 h): 0% | Eos (9 h): 1% | Fbg (9 h): 295.6 mg/dL | Hb (9 h): 13.2 g/dL | Ht (9 h): 38.3% | Lym (9 h): 82.2% | MCH (9 h): 21.6 pg | MCHC (9 h): 34.4% | MCV (9 h): 62.7 fL | Mono (9 h): 2% | Neu (9 h): 14.8% | PT (9 h): 16.1 s | Plat (9 h): 114.1 x10_4/uL | RBC (9 h): 611 x10_4/ul | Ret (9 h): 8.2% | WBC (9 h): 120.9 x10_2/uL | KIDNEY_L (9 h): 1 g | KIDNEY_R (9 h): 1 g | KIDNEY_TOTAL (9 h): 1.9 g | LIVER (9 h): 8.9 g | A/G (9 h): 1.3 | ALP (9 h): 1372.2 IU/L | ALT (9 h): 36.8 IU/L | AST (9 h): 72 IU/L | BUN (9 h): 12.8 mg/dL | CRE (9 h): 0.1 mg/dL | Ca (9 h): 10.5 mg/dL | Cl (9 h): 106.6 meq/L | DBIL (9 h): 0.018 mg/dL | GLC (9 h): 184.8 mg/dL | IP (9 h): 9.6 mg/dL | K (9 h): 4.5 meq/L | LDH (9 h): 214 IU/L | Na (9 h): 142.2 meq/L | PL (9 h): 133.2 mg/dL | RALB (9 h): 3 g/dL | TBIL (9 h): 0.014 mg/dL | TC (9 h): 71.8 mg/dL | TG (9 h): 65.4 mg/dL | TP (9 h): 5.4 g/dL | gamma-GTP (9 h): 1 IU/L | TERMINAL_BW (24 h): 218.4 g | APTT (24 h): 20.3 s | Bas (24 h): 0% | Eos (24 h): 0.8% | Fbg (24 h): 285.6 mg/dL | Hb (24 h): 13.6 g/dL | Ht (24 h): 39.3% | Lym (24 h): 79.2% | MCH (24 h): 21.5 pg | MCHC (24 h): 34.5% | MCV (24 h): 62.3 fL | Mono (24 h): 2.2% | Neu (24 h): 17.4% | PT (24 h): 16.2 s | Plat (24 h): 118.6 x10_4/uL | RBC (24 h): 631.4 x10_4/ul | Ret (24 h): 7.8% | WBC (24 h): 102.9 x10_2/uL | KIDNEY_L (24 h): 1 g | KIDNEY_R (24 h): 1 g | KIDNEY_TOTAL (24 h): 1.9 g | LIVER (24 h): 10 g | A/G (24 h): 1.2 | ALP (24 h): 1643.4 IU/L | ALT (24 h): 44.8 IU/L | AST (24 h): 78.2 IU/L | BUN (24 h): 18.4 mg/dL | CRE (24 h): 0.2 mg/dL | Ca (24 h): 10.9 mg/dL | Cl (24 h): 106.8 meq/L | DBIL (24 h): 0 mg/dL | GLC (24 h): 189 mg/dL | IP (24 h): 6.6 mg/dL | K (24 h): 4.3 meq/L | LDH (24 h): 251.4 IU/L | Na (24 h): 142 meq/L | PL (24 h): 151.4 mg/dL | RALB (24 h): 3.1 g/dL | TBIL (24 h): 0.006 mg/dL | TC (24 h): 79.8 mg/dL | TG (24 h): 89 mg/dL | TP (24 h): 5.7 g/dL | gamma-GTP (24 h): 1.2 IU/L
